Experimental data reported in article PMC10574094, “Discovery of a SHP2 Degrader with In Vivo Anti-Tumor Activity” (Molecules, 2023).

Tests used:
[1] = target: T1, full-length SHP2 (1-528) (Homo sapiens, UniProt Q06124); assay: SHP2 allosteric inhibition assay (DiFMUP substrate); assay type: biochemical; conditions: full length SHP2, enzymatic assay
T1 construct: The SHP2 protein (Aa 1–528) was cloned into a pET-21a(+) vector; His; made in house; host or cells: E. coli BL21(DE3)
T1 sequence (Q06124 1-528): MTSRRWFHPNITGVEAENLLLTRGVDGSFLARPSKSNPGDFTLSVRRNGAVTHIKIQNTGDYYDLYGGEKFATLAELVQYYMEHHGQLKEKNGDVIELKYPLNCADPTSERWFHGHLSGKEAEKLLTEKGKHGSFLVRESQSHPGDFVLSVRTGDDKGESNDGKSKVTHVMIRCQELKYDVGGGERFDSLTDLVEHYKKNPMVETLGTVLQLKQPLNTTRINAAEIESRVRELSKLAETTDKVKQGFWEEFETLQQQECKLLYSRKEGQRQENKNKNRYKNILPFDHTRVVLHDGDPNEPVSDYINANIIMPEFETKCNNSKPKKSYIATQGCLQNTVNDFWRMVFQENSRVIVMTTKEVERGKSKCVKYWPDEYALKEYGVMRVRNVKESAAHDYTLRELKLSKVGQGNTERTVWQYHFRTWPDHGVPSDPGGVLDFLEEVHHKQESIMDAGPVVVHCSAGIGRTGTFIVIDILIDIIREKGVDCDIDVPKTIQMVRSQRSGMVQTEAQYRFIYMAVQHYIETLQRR
Protocol: The SHP2 protein (Aa 1–528) was cloned into a pET-21a(+) vector. Bacterial BL21(DE3) (Novagen) was used as an expression host, and the induction of protein expression was carried out in LB media with 1 mM IPTG at 18 °C overnight. Cell pellets were stored at −80 °C for subsequent protein purification. Protein purification was conducted at 4 °C. Frozen cell pellets were lysed by sonication in 40 mL cold lysis buffer (50 mM Tris-HCl, pH 8.0, 150 mM NaCl, 5 mM imidazole, and 1 mM PMSF) per liter cell pellet. Cell lysates were clarified by centrifuging for 15 min at 6000 rpm. The supernatant was incubated with HisPur Ni-NTA resin (Thermo Scientific, Waltham, MA, USA) for 2 h, and then packed onto a column and washed with 50 resin volume of buffer A (50 mM Tris-HCl, pH 8.0, 500 mM NaCl, 5 mM imidazole). The HIS-tagged proteins were eluted with Buffer B (50 mM Tris-HCl, pH = 8.0, 500 mM NaCl, 300 mM imidazole,). Pooled HIS-protein-containing fractions were concentrated, loaded onto a HiLoad 26/600 Superdex 75 column (GE Healthcare Biosciences, Piscataway, NJ, USA), and eluted with storage buffer (50 mM Tris-HCl, pH 8.0, 150 mM NaCl, 1 mM DTT, 10% glycerol). Proteins used for inhibition assays were purified using Ni-NTA resin (Qiagen, Hilden, Germany) followed by size exclusion column chromatography (ÄKTA pure, Cytiva, Marlborough, MA, USA) and the purity was determined to be >95% by SDS-PAGE and Coomassie staining. The protein was aliquoted and stored at −80 °C.
The catalytic activity of SHP2 (1-528) was assayed with 6,8-Difluoro-4-Methylumbelliferyl Phosphate (DiFMUP, Invitrogen, cat# D6567) as a substrate in 3,3-Dimethylglutaric acid (DMG) buffer (50 mM DMG, pH 7.0, 1 mM EDTA, 18 mM NaCl, 0.01% Triton X-100) at 25 °C. To determine the IC50 values, the assays were performed in 96-well plates (Corning Costar 3915). Series diluted compounds were incubated with 0.5 nM of SHP2 and 0.5 μM of peptide IRS1_pY1172(dPEG8)pY1222 (sequence H2N-LN(pY)IDLDLV(dPEG8)LST(pY)ASINFQK-amide). After 30 min incubation at room temperature, the substrate DiFMUP was added to the reaction (200 μM final concentration, total reaction volume is […]) and incubated at 25 °C for 10 min. The reaction was then quenched by adding 40 μL of 160 μM bpV(Phen) (Sigma–Aldrich, cat# SML0889) solution. The fluorescence signal was monitored with a CLARIOstar Plus Microplate Spectrophotometer (BMG Labtech) using excitation and emission wavelengths of 340 and 450 nm, respectively. The inhibitordose-response curves were analyzed using normalized IC50 regression curve fitting with control-based normalization. Data were fitted using Prism GraphPad 9.2.0.

[2] = target: T2, SHP2 (Homo sapiens, UniProt Q06124); assay: SHP2 degradation by Western blotting in HEK293 cells; assay type: cell-based; design: endogenous in cells; host or cells: HEK293; conditions: HEK293 cells; for SHP2 degradation (in words): 1 and 10 µM; for Degradation at 1 μM / Degradation at 10 μM: 16 h treatment
T2 sequence (Q06124 1-593): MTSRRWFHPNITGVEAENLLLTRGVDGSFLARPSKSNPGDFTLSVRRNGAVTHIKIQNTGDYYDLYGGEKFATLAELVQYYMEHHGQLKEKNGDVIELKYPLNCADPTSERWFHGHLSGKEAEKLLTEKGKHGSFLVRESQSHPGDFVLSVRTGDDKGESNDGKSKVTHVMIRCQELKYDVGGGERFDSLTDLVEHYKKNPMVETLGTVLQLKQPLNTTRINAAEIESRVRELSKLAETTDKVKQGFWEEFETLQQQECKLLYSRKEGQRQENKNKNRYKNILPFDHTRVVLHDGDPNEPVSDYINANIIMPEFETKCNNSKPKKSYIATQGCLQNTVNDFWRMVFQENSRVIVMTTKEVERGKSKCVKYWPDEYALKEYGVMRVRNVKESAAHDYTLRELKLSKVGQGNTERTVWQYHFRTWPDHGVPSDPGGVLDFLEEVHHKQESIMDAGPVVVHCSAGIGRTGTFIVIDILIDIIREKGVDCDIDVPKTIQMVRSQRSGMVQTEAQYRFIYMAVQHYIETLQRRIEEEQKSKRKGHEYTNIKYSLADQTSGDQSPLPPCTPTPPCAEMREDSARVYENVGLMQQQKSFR
Protocol: HEK293, SKBR3, U2OS, MCF7 and A549 cells were grown in DMEM supplemented with 10% FBS, penicillin (50 units/mL), and streptomycin (50 μg/mL) in a 37 °C incubator containing 5% CO2. […] For western-blot analysis, protein samples were separated by SDS-PAGE, transferred to nitrocellulose membranes, and incubated overnight at 4 °C with corresponding primary antibodies diluted in 5% BSA in phosphate-buffered saline Tween (PBST). SuperSignal™ West Pico PLUS (PI34580; Thermo Scientific) was used to visualize the antibodies in the bioanalytical imaging system (Azure Biosystems c500). […] Anti-PTP1B (ab244207) antibody was purchased from Abcam. For colony formation assay, a total of approximately 200–500 cells were seeded to each well in a 12-well plate.
Supplemental Figures, Schemes, and Tables:
Figure S1. Western blots of degradation assay for PROTAC screening. (A) Degradation assay of
compo un ds i n Table 1 at 1 μM fo r 16 hours in H EK29 3 cells. (B) Degradation assay of compounds in Table
1 at 10 μM for 16 hours in HEK293 cells. (C) Degradation assay of compounds in Table 2 at 1 μM for 16

[3] = Decomposition of CRBN-based PROTACs in DMEM media or water (LCMS); assay type: physicochemical; conditions: 10 μM, within 3 h, DMEM cell media or water, room temperature
Text: With the desired SHP2 ligand in hand, we synthesized an initial set of PROTAC molecules using pomalidomide or lenalidomide as a ligand of the E3 ligase Cereblon (CRBN), which is one of the most productive E3 in the development of PROTACs. […] This observation is consistent with the fact that phthalimides can be smoothly hydrolyzed in the presence of water and an organic base, as these PROTAC compounds contain a basic aliphatic amino group. Given that this free amino group in the allosteric inhibitors is essential for the binding affinity to SHP2 [28], we reasoned that pomalidomide or lenalidomide-based CRBN ligands are not suitable for the development of in vivo efficacious SHP2 degraders in this study due to stability considerations.
Scheme S1. Decomposition of CRBN-based PROTACs in the presence of water. 10 μM compound 11 or
12 was incubated in DMEM media or water for 3 hours. The fina l co ncentrations of the compounds at
the endpoint were quantified by LCMS.
Table S1. Enzymatic IC50s of first generation SHP2 PROTACs against full length SHP2
Compound ID Linker Structure Linker Length (atom) SHP2 IC50 (n M) […]

| Compound | IC50 [1] [nM] | SHP2 degradation (in words) [2] | Degradation at 1 μM [2] [%] | Degradation at 10 μM [2] [%] | compound converted into ring-opened products 13 [3] |
| --- | --- | --- | --- | --- | --- |
| Cc1ncsc1-c1ccc([C@H](C)NC(=O)[C@@H]2C[C@@H](O)CN2C(=O)[C@@H](NC(=O)CCCCCNC(=O)CCCCCC2(CN)CCN(c3cnc(Sc4cccc(Cl)c4Cl)c(N)n3)CC2)C(C)(C)C)cc1 [SC5, (2S,4R)-1-((S)-2-(6-(6-(1-(6-amino-5-((2,3-dichlorophenyl)thio)pyrazin-2-yl)-4-(aminomethyl)piperidin-4-yl)hexanamido)hexanamido)-3,3-dimethylbutanoyl)-4-hydroxy-N-((S)-1-(4-(4-methylthiazol-5-yl)phenyl)ethyl)pyrrolidine-2-carboxamide] | 139 ± 10.4 | negligible to modest degradation | <10 | <10 | – |
| NCC1(CCCCCC(=O)NCCCCCC(=O)Nc2cccc3c2C(=O)N(C2CCC(=O)NC2=O)C3=O)CCN(c2cnc(Sc3cccc(Cl)c3Cl)c(N)n2)CC1 (stereo not drawn) [compound 11, 6-(1-(6-amino-5-((2,3-dichlorophenyl)thio)pyrazin-2-yl)-4-(aminomethyl)piperidin-4-yl)-N-(6-((2-(2,6-dioxopiperidin-3-yl)-1,3-dioxoisoindolin-4-yl)amino)-6-oxohexyl)hexanamide] | – | – | – | – | over 90% |
| NCC1(CCCCCC(=O)NCCCCCC(=O)Nc2cccc3c2CN(C2CCC(=O)NC2=O)C3=O)CCN(c2cnc(Sc3cccc(Cl)c3Cl)c(N)n2)CC1 (stereo not drawn) [compound 12, 6-(1-(6-amino-5-((2,3-dichlorophenyl)thio)pyrazin-2-yl)-4-(aminomethyl)piperidin-4-yl)-N-(6-((2-(2,6-dioxopiperidin-3-yl)-1-oxoisoindolin-4-yl)amino)-6-oxohexyl)hexanamide] | – | – | – | – | over 90% |

Continued by falling IC50 [1], values first:

| IC50 [1] [nM] | SHP2 degradation (in words) [2] | Degradation at 1 μM [2] [%] | Degradation at 10 μM [2] [%] | compound converted into ring-opened products 13 [3] | Compound |
| --- | --- | --- | --- | --- | --- |
| 132 ± 8.7 | negligible to modest degradation | – | 25 | – | Cc1ncsc1-c1ccc([C@H](C)NC(=O)[C@@H]2C[C@@H](O)CN2C(=O)[C@@H](NC(=O)CCCCCCCCCNC(=O)CCCCCC2(CN)CCN(c3cnc(Sc4cccc(Cl)c4Cl)c(N)n3)CC2)C(C)(C)C)cc1 [SC9, (2S,4R)-1-((S)-2-(10-(6-(1-(6-amino-5-((2,3-dichlorophenyl)thio)pyrazin-2-yl)-4-(aminomethyl)piperidin-4-yl)hexanamido)decanamido)-3,3-dimethylbutanoyl)-4-hydroxy-N-((S)-1-(4-(4-methylthiazol-5-yl)phenyl)ethyl)pyrrolidine-2-carboxamide] |
| 124 ± 21.6 | negligible to modest degradation | <10 | 15 | – | Cc1ncsc1-c1ccc([C@H](C)NC(=O)[C@@H]2C[C@@H](O)CN2C(=O)[C@@H](NC(=O)CCCCCCCNC(=O)CCCCCC2(CN)CCN(c3cnc(Sc4cccc(Cl)c4Cl)c(N)n3)CC2)C(C)(C)C)cc1 [SC7, (2S,4R)-1-((S)-2-(8-(6-(1-(6-amino-5-((2,3-dichlorophenyl)thio)pyrazin-2-yl)-4-(aminomethyl)piperidin-4-yl)hexanamido)octanamido)-3,3-dimethylbutanoyl)-4-hydroxy-N-((S)-1-(4-(4-methylthiazol-5-yl)phenyl)ethyl)pyrrolidine-2-carboxamide] |
| 122 ± 19.1 | – | 36 | – | – | Cc1ncsc1-c1ccc([C@H](C)NC(=O)[C@@H]2C[C@@H](O)CN2C(=O)[C@@H](NC(=O)CCCCCCCCCCNC(=O)CCCCCC2(CN)CCN(c3cnc(Sc4cccc(Cl)c4Cl)c(N)n3)CC2)C(C)(C)C)cc1 [SC10, (2S,4R)-1-((S)-2-(11-(6-(1-(6-amino-5-((2,3-dichlorophenyl)thio)pyrazin-2-yl)-4-(aminomethyl)piperidin-4-yl)hexanamido)undecanamido)-3,3-dimethylbutanoyl)-4-hydroxy-N-((S)-1-(4-(4-methylthiazol-5-yl)phenyl)ethyl)pyrrolidine-2-carboxamide] |
| 105 ± 15.6 | – | 27 | 64 | – | Cc1ncsc1-c1ccc([C@H](C)NC(=O)[C@@H]2C[C@@H](O)CN2C(=O)[C@@H](NC(=O)CCCCCCCCCCCNC(=O)CCCCCC2(CN)CCN(c3cnc(Sc4cccc(Cl)c4Cl)c(N)n3)CC2)C(C)(C)C)cc1 [SC11, (2S,4R)-1-((S)-2-(12-(6-(1-(6-amino-5-((2,3-dichlorophenyl)thio)pyrazin-2-yl)-4-(aminomethyl)piperidin-4-yl)hexanamido)dodecanamido)-3,3-dimethylbutanoyl)-4-hydroxy-N-((S)-1-(4-(4-methylthiazol-5-yl)phenyl)ethyl)pyrrolidine-2-carboxamide] |
